Laboratory results from US5407824A, “Recombinant coryneform bacterium for producing L-tryptophan” (Kyowa Hakko Kogyo Co., Ltd., priority 1989, dated 1995).

Tests used:
Format in all cases: biochemical
[1] = target: T1, anthranilate synthase (AS) of ATCC 39019 strain (Corynebacterium glutamicum, UniProt P06557); experiment: AS activity, inhibition by tryptophan, ATCC 39019 strain; settings: read-out: Tryptophan concentration effective for 50% inhibition of the AS activity
T1 construct: endogenous in cells; host or cells: C. glutamicum, strain printed as ATCC 39019 (ATCC 13032 earlier in the same paragraph)

[2] = target: T2, anthranilate synthase (AS) encoded by pCtrp57 (Corynebacterium glutamicum, UniProt P06557); experiment: AS activity, inhibition by tryptophan, TA108 strain carrying pCtrp57; settings: read-out: Tryptophan concentration effective for 50% inhibition of the AS activity
T2 construct: cell enzyme activity
Experimental: (§1) TA108 strain carrying pCtrp1 was cultured in NB medium containing 10 μg/ml kanamycin till the latter stage of the logarithmic growth phase. The grown cells were collected and washed once with 50 mM Tris-maleate buffer solution (pH 6.0) by centrifugation. The washed cells were treated with 400 μg/ml N-methyl-N'-nitro-N-nitrosoguanidine in 50 mM Tris-maleate buffer solution at room temperature for 20 minutes. The treated cells were washed twice with 50 mM Tris-maleate buffer solution by centrifugation and cultured in NB medium containing 10 μg/ml kanamycin at 30° C. for 16 hours. A plasmid DNA was isolated from the grown cells in the same manner as in (1). TA108 strain was transformed with the plasmid thus obtained in the same manner as in (3), and the kanamycin-resistant Colonies grown on RCGP agar medium containing 200 μg/ml kanamycin were scraped up, and washed twice with physiological saline solution by centrifugation. The washed cells were spread on minimal agar medium M1 containing 3 mg/ml 5FT, and cultured at 30° C. for three days. […]
(§2) AS activities of Corynebacterium glutamicum ATCC 13032 and TA108 strains carrying pCtrp1 or pCtrp57 were determined according to the method of H. Hagino, et al. [Agric. Biol. Chem., 39, 323 (1975)], and their PRT activities were determined according to the method of J. Ito and C. […]

[3] = target: T3, anthranilate phosphoribosyl transferase (PRT) encoded by pCtrp57 (Corynebacterium glutamicum, UniProt P06559); experiment: PRT activity, inhibition by tryptophan, TA108 strain carrying pCtrp57; settings: read-out: Tryptophan concentration effective for 50% inhibition of the PRT activity
T3 construct: cell enzyme activity
Experimental: as §1, §2

[4] = target: T4, anthranilate synthase (AS) encoded by pCtrp1 (Corynebacterium glutamicum, UniProt P06557); experiment: AS activity, inhibition by tryptophan, TA108 strain carrying pCtrp1; settings: read-out: Tryptophan concentration effective for 50% inhibition of the AS activity
T4 construct: cell enzyme activity
Experimental: (§3) AS activities of Corynebacterium glutamicum ATCC 13032 and TA108 strains carrying pCtrp1 or pCtrp57 were determined according to the method of H. Hagino, et al. [Agric. Biol. Chem., 39, 323 (1975)], and their PRT activities were determined according to the method of J. Ito and C. Yanofsky [J. Biol. Chem., 97, 734 (1969)]. AS and PRT activities of TA108 strains carrying pCtrp1 or pCtrp57 were more than 10 times as high as those of ATCC 13032 strain.

[5] = target: T5, anthranilate phosphoribosyl transferase (PRT) of ATCC 39019 strain (Corynebacterium glutamicum, UniProt P06559); experiment: PRT activity, inhibition by tryptophan, ATCC 39019 strain; settings: read-out: Tryptophan concentration effective for 50% inhibition of the PRT activity
T5 construct: endogenous in cells; host or cells: C. glutamicum, strain printed as ATCC 39019 (ATCC 13032 earlier in the same paragraph)
T5 sequence (P06559 1-348): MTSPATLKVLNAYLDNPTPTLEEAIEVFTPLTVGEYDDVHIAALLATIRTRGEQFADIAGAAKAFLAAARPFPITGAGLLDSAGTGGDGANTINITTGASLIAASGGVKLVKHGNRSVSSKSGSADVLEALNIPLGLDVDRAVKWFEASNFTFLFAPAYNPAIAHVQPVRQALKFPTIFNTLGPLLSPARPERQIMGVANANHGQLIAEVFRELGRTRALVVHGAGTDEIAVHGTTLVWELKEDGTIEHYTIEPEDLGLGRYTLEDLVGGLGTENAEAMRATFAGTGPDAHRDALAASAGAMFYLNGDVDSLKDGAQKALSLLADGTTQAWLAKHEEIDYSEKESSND

[6] = target: T6, anthranilate phosphoribosyl transferase (PRT) encoded by pCtrp1 (Corynebacterium glutamicum, UniProt P06559); experiment: PRT activity, inhibition by tryptophan, TA108 strain carrying pCtrp1; settings: read-out: Tryptophan concentration effective for 50% inhibition of the PRT activity
T6 construct: presence of the AS, PRT, TS-α and TS-β genes in the above 11.0 Kb DNA fragment introduced into pCtrp1; expressed in transfected cells; host or cells: C. glutamicum TA108 carrying pCtrp1
T6 sequence (P06559 1-348): T5 sequence (P06559 1-348)
Experimental: as §3

[7] = tested on: 3-deoxy-D-arabino-heptulosonate-7-phosphate synthase (DS) of the transformant carrying pCGDS1; experiment: DS activity, inhibition by phenylalanine and tyrosine, transformant carrying pCGDS1; settings: Corynebacterium glutamicum ATCC 13032 carrying pCGDS1 (DS gene from K38)
Experimental: DS activities of Corynebacterium glutamicum ATCC 13032 and the transformant carrying pCGDS1 were determined according to the method of P. R. Sprinavasan, D. B. Sprinson, et al. [J. Biol. Chem., 234, 716 (1959)].

T4 sequence (P06558 whole entry): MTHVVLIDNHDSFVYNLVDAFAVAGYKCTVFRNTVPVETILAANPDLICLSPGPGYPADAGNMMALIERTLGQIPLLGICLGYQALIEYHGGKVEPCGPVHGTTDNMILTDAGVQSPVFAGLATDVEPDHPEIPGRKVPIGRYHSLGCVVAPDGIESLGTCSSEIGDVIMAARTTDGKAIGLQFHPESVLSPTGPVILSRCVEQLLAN
T4 sequence (P06557 whole entry): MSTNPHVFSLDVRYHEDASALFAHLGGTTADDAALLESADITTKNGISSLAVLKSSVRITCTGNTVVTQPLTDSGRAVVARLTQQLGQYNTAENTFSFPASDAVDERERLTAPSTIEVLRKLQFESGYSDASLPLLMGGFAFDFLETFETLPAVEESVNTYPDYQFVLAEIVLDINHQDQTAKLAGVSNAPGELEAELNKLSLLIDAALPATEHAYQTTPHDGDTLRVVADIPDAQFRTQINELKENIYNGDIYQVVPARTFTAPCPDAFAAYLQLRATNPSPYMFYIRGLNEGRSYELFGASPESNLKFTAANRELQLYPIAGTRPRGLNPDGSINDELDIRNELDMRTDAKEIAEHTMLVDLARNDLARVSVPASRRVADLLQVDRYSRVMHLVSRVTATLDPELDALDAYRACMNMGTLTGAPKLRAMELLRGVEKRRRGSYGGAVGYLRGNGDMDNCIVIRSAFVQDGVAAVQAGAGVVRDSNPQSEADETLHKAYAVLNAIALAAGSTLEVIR
T2 sequence (P06558 whole entry): as the sequence (P06558 whole entry) above
T2 sequence (P06557 whole entry): as the sequence (P06557 whole entry) above
T1 sequence (P06557 whole entry): as above
T1 sequence (P06558 whole entry partner): as the sequence (P06558 whole entry) above

Question: Which IC50 [1] does the source give for N[C@@H](Cc1c[nH]c2ccccc12)C(=O)O [tryptophan] here?
Answer: 2 µM

Question: And the IC50 [2]?
Answer: 4000 µM

Question: What about the IC50 [3] of the same compound?
Answer: 4800 µM

Question: What about the IC50 [4] of the same compound?
Answer: 8 µM

Question: What about the IC50 [5] of the same compound?
Answer: 190 µM

Question: What about the IC50 [6] of the same compound?
Answer: 190 µM

Question: Which “Inhibition of DS in the transformant carrying pCGDS1” value [7] does the source give for N[C@@H](Cc1ccccc1)C(=O)O [phenylalanine] here?
Answer: free from inhibition

Question: N[C@@H](Cc1ccc(O)cc1)C(=O)O [tyrosine] was tested. Which “Inhibition of DS in the transformant carrying pCGDS1” value [7] did it give?
Answer: free from inhibition
